{
  "source": "patent US20230105212A1",
  "about": "“BIPHENYL DERIVATIVE INHIBITOR, PREPARATION METHOD THEREFOR AND USE THEREOF” (SHANGHAI HANSOH BIOMEDICAL CO., LTD., priority 2020, published 2023)",
  "molecular_target": "T1, hERG potassium channel (Homo sapiens, UniProt Q12809)",
  "T1 construct": "expressed in transfected cells; host or cells: CHO-hERG cells",
  "T1 sequence (Q12809 whole entry)": "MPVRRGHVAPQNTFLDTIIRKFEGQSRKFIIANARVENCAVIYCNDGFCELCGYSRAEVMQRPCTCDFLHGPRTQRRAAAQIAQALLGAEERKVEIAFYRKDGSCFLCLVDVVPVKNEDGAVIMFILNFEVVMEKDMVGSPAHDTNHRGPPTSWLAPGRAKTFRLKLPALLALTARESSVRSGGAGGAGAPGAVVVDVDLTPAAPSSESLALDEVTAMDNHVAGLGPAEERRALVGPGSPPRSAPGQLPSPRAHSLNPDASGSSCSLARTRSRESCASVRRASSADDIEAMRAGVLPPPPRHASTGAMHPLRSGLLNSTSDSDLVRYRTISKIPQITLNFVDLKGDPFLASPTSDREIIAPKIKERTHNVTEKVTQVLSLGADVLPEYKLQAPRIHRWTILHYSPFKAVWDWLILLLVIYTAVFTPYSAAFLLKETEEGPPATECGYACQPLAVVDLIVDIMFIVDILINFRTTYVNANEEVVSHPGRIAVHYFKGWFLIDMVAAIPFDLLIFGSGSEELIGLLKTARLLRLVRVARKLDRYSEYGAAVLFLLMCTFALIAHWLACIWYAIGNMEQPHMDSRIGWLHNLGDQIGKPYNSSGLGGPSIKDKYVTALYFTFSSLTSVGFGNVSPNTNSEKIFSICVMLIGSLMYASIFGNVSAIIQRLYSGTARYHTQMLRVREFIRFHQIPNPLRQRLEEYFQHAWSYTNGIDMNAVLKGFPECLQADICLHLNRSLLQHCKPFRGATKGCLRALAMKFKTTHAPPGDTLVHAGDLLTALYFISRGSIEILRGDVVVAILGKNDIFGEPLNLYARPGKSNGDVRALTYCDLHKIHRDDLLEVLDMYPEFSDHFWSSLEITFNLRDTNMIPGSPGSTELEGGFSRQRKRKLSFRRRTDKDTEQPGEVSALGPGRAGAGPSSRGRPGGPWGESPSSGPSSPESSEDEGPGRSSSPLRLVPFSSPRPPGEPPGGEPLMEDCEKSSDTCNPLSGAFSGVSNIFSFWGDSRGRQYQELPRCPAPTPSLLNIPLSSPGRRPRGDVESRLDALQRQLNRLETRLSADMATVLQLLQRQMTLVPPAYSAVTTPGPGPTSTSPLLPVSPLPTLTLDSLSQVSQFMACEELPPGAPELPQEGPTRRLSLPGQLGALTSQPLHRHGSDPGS",
  "assay": "Inhibitory activity test of hERG potassium channel (Qpatch, CHO-hERG cells)",
  "type": "cell-based",
  "details": "6 concentrations up to 40 μM",
  "procedure": "Test Embodiment 9. Inhibitory Activity Test of hERG Potassium Channel\n1.1 CHO-hERG cells were cultured in a 175 cm^2 culture flask. When the cell density reached 60 to 80%, the culture medium was removed, washed with 7 mL of PBS, and then digested with 3 mL of Detachin.\n1.2 After the digestion was completed, 7 mL of culture medium was added to neutralize, then centrifuged, and the supernatant was aspirated, and 5 mL of culture medium was added to resuspend to ensure the cell density was 2 to 5×10^6/mL.\nSingle-cell high-impedance sealing and whole-cell pattern formation were all performed automatically by the Qpatch instrument. After the whole-cell recording pattern was obtained, the cell was clamped at −80 mV, before a +40 mV depolarizing stimulus for 5 s was given, a pre-voltage of −50 mV for 50 ms was given, then repolarized to −50 mV for 5 s, and then returned to −80 mV. This voltage stimulus was applied every 15 seconds, and recorded for 2 minutes, then the extracellular solution was given and then recorded for 5 minutes. Then the dosing process was started. The compound concentration started from the lowest test concentration, and each test concentration was administered for 2.5 minutes. After all concentrations were continuously administered, the positive control compound 3 μM Cisapride was administered. […]\nThe experimental data was analyzed by XLFit software.",
  "data": [
    {"smiles": "COc1nc(-c2cccc(-c3cccc(NC(=O)c4nc5c(n4C)CCN(C)C5)c3Cl)c2Cl)ncc1CN1CC(CO)C1", "note": "[Embodiment 223, N-(2,2′-Dichloro-3′-(5-((3-(hydroxymethyl)azetidin-1-yl)methyl)-4-methoxypyrimidin-2-yl)-[1,1′-biphenyl]-3-yl)-1,5-dimethyl-4,5,6,7-tetrahydro-1H-imidazo[4,5-c]pyridine-2-carboxamide]", "values": [
      {"measurement": "IC50", "result": 14.8, "unit": "µM"}
    ]}
  ]
}
